Measured values as given in US10736908B2, “Antiviral aryl-amide phosphodiamide compounds” (Merck Sharp & Dohme Corp., priority 2016, dated 2020).
Read-outs that look alike come from different tables or passages of the source.

Test system: HIV-1 (H9/IIIB strain)
Assay: Multiple round HIV-1 infection assay (Viking assay) in MT4-GFP cells
Format: cell-based
Conditions: HIV-1 replication in MT4-GFP cells
Protocol: Assessing Antiviral Potency in a Multiple Round HIV-1 Infection Assay (Viking Assay)
The antiviral activity of the tenofovir prodrugs of the Examples herein was assessed in an assay that measures the rate of replication of HIV in cell culture, termed the Viking assay (VIral KINetics in Green cells) and performed as follows. HIV-1 replication was monitored using MT4-gag-GFP clone D3 (hereafter designated MT4-GFP), which are MT-4 cells modified to harbor a GFP reporter gene, the expression of which is dependent on the HIV-1 expressed proteins tat and rev. Productive infection of an MT4-GFP cell with HIV-1 results in GFP expression approximately 24 h post-infection. MT4-GFP cells were maintained at 37° C./5% CO2/90% relative humidity in RPMI 1640 supplemented with 10% fetal bovine serum, 100 U/ml penicillin/streptomycin, and 400 μg/ml G418 to maintain the reporter gene. For infections, MT4-GFP cells were placed in the same medium lacking G418 and infected overnight with HIV-1 (H9/IIIB strain) virus at an approximate multiplicity of infection of 0.01 in the same incubation conditions. […] Compound plates were prepared by dispensing compounds dissolved in DMSO into wells of 384 well poly-D-lysine-coated plates (0.2 μl/well) using an ECHO acoustic dispenser. Each compound was tested in a 10-point serial 3-fold dilution (typical final concentrations: 8.4 μM-0.42 nM). Controls included no inhibitor (DMSO only) and a combination of three antiviral agents (efavirenz, indinavir, an in-house integrase strand transfer inhibitor at final concentrations of 4 μM each). Cells were added (50 μL/well) to compound plates and the infected cells were maintained at 37° C./5% CO2/90% relative humidity.
Infected cells were quantified at two time points, ˜48 h and ˜72 h post-infection, by counting the number of green cells in each well using an Acumen eX3 scanner. The increase in the number of green cells over ˜24 h period gives the reproductive ratio, R0, which is typically 5-15 and has been shown experimentally to be in logarithmic phase (data not shown). Inhibition of R0 is calculated for each well, and IC50s determined by non-linear 4-parameter curve fitting.

[1] = Human immunodeficiency virus 1, IIIB, 50% NHS (normal human serum), read-out: Viking, IC50 (50% NHS)
[2] = Human immunodeficiency virus 1, IIIB, head prints 100% NHS (normal human serum), read-out: Viking, IC50 (100% NHS)
[3] = 50% NHS (normal human serum), read-out: Viking, IC50 (50% NHS)
[4] = head prints 100% NHS (normal human serum), read-out: Viking, IC50 (100% NHS)

Compound	IC50 [1] [nM]	IC50 [2] [nM]	IC50 [3] [nM]	IC50 [4] [nM]
CC(C)OC(=O)C(C)(C)NP(=O)(CO[C@H](C)Cn1cnc2c(N)ncnc21)NC(=O)c1ccc(Cl)cc1 (mixture of isomers) [Example 1A, isopropyl 2-(((R)—((((R)-1-(6-amino-9H-purin-9-yl)propan-2-yl)oxy)methyl)(4-chlorobenzamido)phosphoryl)amino)-2-methylpropanoate and isopropyl 2-(((S)—((((R)-1-(6-amino-9H-purin-9-yl)propan-2-yl)oxy)methyl)(4-chlorobenzamido)phosphoryl)amino)-2-methylpropanoate]	286	82.4	–	–
CCCOC(=O)C(C)(C)NP(=O)(CO[C@H](C)Cn1cnc2c(N)ncnc21)NC(=O)c1ccc(OC)cc1 (single isomer, unassigned) [Example 2A]	93.2	32.4	–	–
CCCOC(=O)C(C)(C)NP(=O)(CO[C@H](C)Cn1cnc2c(N)ncnc21)NC(=O)c1ccc(Cl)cc1 (single isomer, unassigned) [Example 4A]	–	–	57.9	12
CC(C)COC(=O)C(C)(C)NP(=O)(CO[C@H](C)Cn1cnc2c(N)ncnc21)NC(=O)c1ccc(Cl)cc1 (single isomer, unassigned) [Example 5A]	–	–	79.8	12.3
CC(C)COC(=O)C(C)(C)NP(=O)(CO[C@H](C)Cn1cnc2c(N)ncnc21)NC(=O)c1ccc(Cl)cc1 (single isomer, unassigned) [Example 5B]	–	–	24.4	1.9
C[C@H](Cn1cnc2c(N)ncnc21)OCP(=O)(NC(=O)c1ccc(Cl)cc1)NC(C)(C)C(=O)OC1CCC1 (single isomer, unassigned) [Example 6A]	–	–	36.9	11.1
C[C@H](Cn1cnc2c(N)ncnc21)OCP(=O)(NC(=O)c1ccc(Cl)cc1)NC(C)(C)C(=O)OC1CCCC1 (single isomer, unassigned) [Example 7A]	–	–	31.7	8.4
C[C@H](Cn1cnc2c(N)ncnc21)OCP(=O)(NC(=O)c1ccc(Cl)cc1)NC(C)(C)C(=O)OC1CCCC1 (single isomer, unassigned) [Example 7B]	–	–	13.5	1.92
CCOCCOC(=O)C(C)(C)NP(=O)(CO[C@H](C)Cn1cnc2c(N)ncnc21)NC(=O)c1ccc(Cl)cc1 (single isomer, unassigned) [Example 8A]	–	63.9	133	–
CCOCCOC(=O)C(C)(C)NP(=O)(CO[C@H](C)Cn1cnc2c(N)ncnc21)NC(=O)c1ccc(Cl)cc1 (single isomer, unassigned) [Example 8B]	–	–	62.2	41.1
C[C@H](Cn1cnc2c(N)ncnc21)OCP(=O)(NC(=O)c1ccc(Cl)cc1)NC(C)(C)C(=O)OC1CCOCC1 (single isomer, unassigned) [Example 9A]	–	–	1440	404
CC(C)OC(=O)C(C)(C)NP(=O)(CO[C@H](C)Cn1cnc2c(N)ncnc21)NC(=O)c1ccc(F)cc1 (single isomer, unassigned) [Example 10A]	–	–	264	129
CCCCCOC(=O)C(C)(C)NP(=O)(CO[C@H](C)Cn1cnc2c(N)ncnc21)NC(=O)c1ccc(F)cc1 (single isomer, unassigned) [Example 11B]	–	–	30.8	5.7
CCOCCOC(=O)C(C)(C)NP(=O)(CO[C@H](C)Cn1cnc2c(N)ncnc21)NC(=O)c1ccccc1Cl (single isomer, unassigned) [Example 12A]	90.6	30.9	–	–
CCOCCOC(=O)C(C)(C)NP(=O)(CO[C@H](C)Cn1cnc2c(N)ncnc21)NC(=O)c1ccccc1Cl (single isomer, unassigned) [Example 12B]	–	–	83.4	26.7
CC(C)OC(=O)C(C)(C)NP(=O)(CO[C@H](C)Cn1cnc2c(N)ncnc21)NC(=O)c1ccncn1 (single isomer, unassigned) [Example 13A]	–	–	2130	854
CC(C)OC(=O)C(C)(C)NP(=O)(CO[C@H](C)Cn1cnc2c(N)ncnc21)NC(=O)c1ccncn1 (single isomer, unassigned) [Example 13B]	–	–	480	164
